Measured values as given in patent publication US20240158693A1, “Probe for Hydrogen Sulfide Detection, Method for Manufacturing Same, and Composition for Hydrogen Sulfide Detection, Comprising Same” (Korea Institute of Ocean Science &Technology, priority 2020, published 2024).
Where a name gives a salt, the structure may show the parent alone.

Legend:
[1] = Sensing behavior of KF-DNBS with HSA as selective H2S probe (H2S titration, LOD)
Description: The experiment was carried out in triplicate. The limit of detection (LOD) was calculated using 3σ/slope based on the titration experiment, in which σ was the standard deviation of the blank measurements and the slope value was obtained from a plot of the fluorescence intensity versus H2S concentration.

[2] = Optimization of sensing conditions for H2S detection (biothiols with and without 2-FBBA)
Description: The samples containing HSA (100 μM) and each biothiol (H2S 100 μM, Cys 250 μM, Hcy 100 μM, and GSH 10 μM) with and without 2-formyl benzene boronic acid (2-FBBA) in SPB (pH 7.4, 20 mM) were incubated for 15 minutes at 25° C. KF-DNBS (25 μM, 10% DMSO) was added to the samples followed by the measurement of fluorescence spectra under excitation at 420 nm at 37° C.

[3] = target: HSA (Homo sapiens, UniProt P02768); assay: Comparison of fluorescence change of KF and KF-DNBS with HSA; settings: SPB pH 7.4, excitation 420 nm
Description: Stock solutions of KF and KF-DNBS were prepared in DMSO, and a stock solution of HSA was prepared in distilled water. Blanks, each containing only KF or KF-DNBS (25 μM, 10% DMSO), and samples, each containing KF or KF-DNBS (25 μM, 10% DMSO) with HSA (100 μM) in sodium phosphate buffer (SPB, pH 7.4, 20 mM), were prepared. Fluorescence spectra were then recorded using the fluorescence spectrophotometer under excitation at 420 nm.

[4] = Selectivity of KF-DNBS toward H2S over other biological analytes
Description: Next, the selectivity of KF-DNBS with HSA toward H2S was investigated using various biologically relevant species, including biothiols (Cys, Hcy, and GSH), reactive sulfur species (RSS), and reactive oxygen species (ROS) (HSO4^−, SO4^2−, SO3^2−, S2O3^2−, SCN^−, H2O2, and ClO^−), and anions (CN^−, F^−, Br^−, NO3^−, NO2^−, HCO3^−, and CH3CO2^−).
A blank containing no analyte and a sample containing each analyte (H2S 100 μM, Cys 250 μM, Hcy 100 μM, GSH 10 μM, HSO4^− 100 μM, SO4^2− 100 μM, SO3^2− 100 μM, S2O3^2− 100 μM, SCN^− 100 μM, CN^− 100 μM, F^− 100 μM, Br^− 100 μM, NO3^− 100 μM, NO2^− 100 μM, HCO3^− 100 μM, CH3CO2^− 100 μM, H2O2 100 μM, ClO^− 100 μM) were prepared followed by the addition of HSA (100 μM) and 2-FBBA (2 mM) to SPB (pH 7.4, 20 mM). After incubation for 15 minutes at 25° C., KF-DNBS (25 μM, 10% DMSO) was added to each sample, and then fluorescence intensity at 500 nm was recorded using the fluorescence spectrophotometer under excitation at 420 nm at 37° C. The experiment was conducted in triplicate.

[5] = KF-DNBS 25 μM with HSA 100 μM, 2-FBBA 2 mM, SPB pH 7.4

HSA, sequence (P02768 25-609): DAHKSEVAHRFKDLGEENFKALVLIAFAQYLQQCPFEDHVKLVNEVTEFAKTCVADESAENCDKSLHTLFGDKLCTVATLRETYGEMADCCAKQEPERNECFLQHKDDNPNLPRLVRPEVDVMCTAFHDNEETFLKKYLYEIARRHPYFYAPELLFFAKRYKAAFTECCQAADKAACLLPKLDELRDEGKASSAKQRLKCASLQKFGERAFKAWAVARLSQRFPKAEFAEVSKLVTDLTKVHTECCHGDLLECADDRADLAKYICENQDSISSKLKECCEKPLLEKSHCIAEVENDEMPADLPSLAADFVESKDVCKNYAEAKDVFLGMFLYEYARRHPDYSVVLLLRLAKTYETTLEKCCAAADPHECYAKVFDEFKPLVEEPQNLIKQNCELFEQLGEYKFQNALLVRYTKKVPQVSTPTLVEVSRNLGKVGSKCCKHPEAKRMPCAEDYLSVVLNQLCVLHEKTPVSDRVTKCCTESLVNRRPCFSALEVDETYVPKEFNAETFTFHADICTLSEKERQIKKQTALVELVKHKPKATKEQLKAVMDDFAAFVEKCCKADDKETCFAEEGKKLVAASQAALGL

Compound: CCN(CC)c1ccc(-c2cc3c(s2)c(-c2ccc(OS(=O)(=O)c4ccc([N+](=O)[O-])cc4[N+](=O)[O-])cc2)cc(=O)n3C)cc1 (as salt: benzenesulfonate) [KF-DNBS, 4-(2-(4-(diethylamino)phenyl)-4-methyl-5-oxo-4,5-dihydrothieno[3,2-b]pyridin-7-yl)phenyl 2,4-dinitrobenzenesulfonate]
- melting point: 96 to 98 °C

Compound: CCN(CC)c1ccc(-c2cc3c(s2)c(-c2ccc(OS(=O)(=O)c4ccc([N+](=O)[O-])cc4[N+](=O)[O-])cc2)cc(=O)n3C)cc1 [KF-DNBS, 4-(2-(4-(diethylamino)phenyl)-4-methyl-5-oxo-4,5-dihydrothieno[3,2-b]pyridin-7-yl)phenyl 2,4-dinitrobenzenesulfonate]
- H2S concentration range of linear fluorescence increase [1, 5]: 5 to 100 µM
- detection limit (3σ/slope) for H2S [1, 5]: 3.2 µM
- time for fluorescence intensity at 500 nm to reach the maximum value ([1]; KF-DNBS 25 μM, HSA 100 μM, 2-FBBA 2 mM, SPB pH 7.4, H2S added, 37° C.): ≤ 20 min
- H2S response in various buffer conditions ([1]; KF-DNBS with HSA, H2S 100 μM, pH 5 to pH 9, 20 mM): worked well
- fluorescence change induced by Cys and Hcy ([2]; KF-DNBS 25 μM with HSA 100 μM, Cys 250 μM, Hcy 100 μM, without 2-FBBA): noticeable fluorescence change
- fluorescence intensity at 500 nm on addition of H2S ([2]; KF-DNBS 25 μM with HSA 100 μM, H2S 100 μM, SPB pH 7.4, without 2-FBBA): increased significantly
- selectivity to H2S over other biothiols ([2]; KF-DNBS with HSA in the presence of 2-FBBA (2 mM)): superior selectivity
- fluorescence in the presence or absence of HSA ([3]; 25 μM, 10% DMSO, HSA 100 μM): weak fluorescence
- fluorescence enhancement at 500 nm with various analytes ([4]; KF-DNBS 25 μM, HSA 100 μM, 2-FBBA 2 mM, SPB pH 7.4, 18 analytes): remarkable fluorescence enhancement was observed only for H2S
- selectivity toward H2S ([4]; KF-DNBS with HSA and masking reagent 2-FBBA, biothiols, RSS, ROS, anions): high selectivity

Compound: 2-formyl benzene boronic acid [2-FBBA, reference compound]
- masking of the reactivity of Cys and Hcy upon KF-DNBS ([2]; 2-FBBA 2 mM, Cys 250 μM, Hcy 100 μM, HSA 100 μM): completely block

Compound: CCN(CC)c1ccc(-c2cc3c(s2)c(-c2ccc(O)cc2)cc(=O)n3C)cc1 [KF, 2-(4-(diethylamino)phenyl)-7-(4-hydroxyphenyl)-4-methylthieno[3,2-b]pyridin-5(4H)-one]
- melting point: 250 to 251 °C
- fluorescence shift by addition of HSA ([3]; 25 μM, 10% DMSO, HSA 100 μM): shifted slightly from 550 to 500
- HSA concentration range of linear fluorescence increase [3]: 5 to 50 µM
